We go through three compounds from article PMC7068650, “In silico screening of GMQ-like compounds reveals guanabenz and sephin1 as new allosteric modulators of acid-sensing ion channel 3” (Biochemical Pharmacology, 2020).

What all share (type): cell-based
The target in assay [1] is T1, acid-sensing ion channel 3 (rASIC3) (Rattus norvegicus, UniProt O35240).
T1 construct: gene Asic3
T1 sequence (O35240 1-533): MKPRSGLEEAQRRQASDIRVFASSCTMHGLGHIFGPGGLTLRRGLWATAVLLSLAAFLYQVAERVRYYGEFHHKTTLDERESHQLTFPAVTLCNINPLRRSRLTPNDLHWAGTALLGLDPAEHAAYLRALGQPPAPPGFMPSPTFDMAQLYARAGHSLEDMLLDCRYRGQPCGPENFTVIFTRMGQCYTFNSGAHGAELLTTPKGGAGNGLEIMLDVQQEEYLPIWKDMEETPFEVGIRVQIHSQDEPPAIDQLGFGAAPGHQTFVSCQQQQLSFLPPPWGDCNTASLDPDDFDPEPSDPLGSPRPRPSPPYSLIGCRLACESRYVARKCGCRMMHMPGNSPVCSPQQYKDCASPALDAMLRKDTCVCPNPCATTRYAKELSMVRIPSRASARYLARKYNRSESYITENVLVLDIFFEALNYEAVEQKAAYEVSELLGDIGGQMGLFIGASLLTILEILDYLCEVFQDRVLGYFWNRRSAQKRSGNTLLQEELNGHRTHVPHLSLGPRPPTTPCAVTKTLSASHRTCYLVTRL
The assay is described as follows: whole-cell patch clamp, rASIC3-transfected CHO cells, activation at pH […] (estimated EC50; also potentiates pH […] and pH […] responses).

The target of assay [2] is T1, acid-sensing ion channel 3 (rASIC3). The assay is described as follows: whole-cell patch clamp, rASIC3-transfected CHO cells, activation at pH […] (reference agonist; estimated EC50).
Assay [3] has the same target. Kind of assay: whole-cell patch clamp, rASIC3-transfected CHO cells, potentiation of the pH […] response at […] (no effect on pH […] response).

Usually EC50 stands for the concentration needed to bring the measured effect to its halfway point.

`N=C(N)N/N=C/c1c(Cl)cccc1Cl` [GBZ, guanabenz]: the concentration giving a half-maximal response (EC50) in assay [1] is roughly 67.5 µM.

`Cc1nc(NC(=N)N)nc2ccccc12` [GMQ, 2-guanidine-4-methylquinazoline]: the EC50 in assay [2] is roughly 680 µM.

With `Clc1ccc2nsnc2c1NC1=NCCN1` [TIZ, tizanidine], the “whole-cell patch clamp, rASIC3-transfected CHO cells, potentiation of the pH 7 r” value in assay [3] was “TIZ and GBZ produced a similar effect, inducing an increase in the peak and sustained currents”.
